The structures appear in SMILES notation.

What all share (test): Caliper, Mobility shift assay off-chip
Assay [1] deals with MAPK1 (mouse). The settings on record: compound 1.0 µM; accession and sequence are those of the human protein.
Assay [2] has as its target MINK1 (human) (UniProt Q8N4C8). The settings on record: compound 1.0 µM.
Assay [3] has as its target BMX (human) (UniProt P51813). As to conditions: compound 1.0 µM.
Assay [4] deals with ABL2 (human) (UniProt P42684). As to conditions: compound 1.0 µM.
In assay [5] the target is SGK3 (human) (UniProt Q96BR1). The settings on record: compound 1.0 µM.
SGK3 (human), sequence (Q96BR1 whole entry, looked up): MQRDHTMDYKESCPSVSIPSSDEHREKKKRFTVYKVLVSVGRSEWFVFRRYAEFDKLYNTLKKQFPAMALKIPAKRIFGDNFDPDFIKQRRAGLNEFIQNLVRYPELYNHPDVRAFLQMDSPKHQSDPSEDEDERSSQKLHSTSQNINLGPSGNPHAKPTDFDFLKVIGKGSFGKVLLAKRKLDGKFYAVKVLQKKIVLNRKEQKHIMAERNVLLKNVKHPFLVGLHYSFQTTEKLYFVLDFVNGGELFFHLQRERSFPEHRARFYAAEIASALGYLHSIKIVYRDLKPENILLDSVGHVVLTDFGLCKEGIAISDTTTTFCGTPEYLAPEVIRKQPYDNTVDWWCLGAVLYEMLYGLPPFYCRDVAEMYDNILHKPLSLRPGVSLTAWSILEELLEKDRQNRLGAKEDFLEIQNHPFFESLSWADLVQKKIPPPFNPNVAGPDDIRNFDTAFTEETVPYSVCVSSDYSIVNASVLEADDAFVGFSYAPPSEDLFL
Assay [6] addresses WNK3 (human) (UniProt Q9BYP7). As to conditions: compound 1.0 µM.
Assay [7] addresses PRKCH (human) (UniProt P24723). As to conditions: compound 1.0 µM.
For assay [8], the target named is DAPK3 (human) (UniProt O43293). The settings on record: compound 1.0 µM.
DAPK3 (human), sequence (O43293 whole entry, looked up): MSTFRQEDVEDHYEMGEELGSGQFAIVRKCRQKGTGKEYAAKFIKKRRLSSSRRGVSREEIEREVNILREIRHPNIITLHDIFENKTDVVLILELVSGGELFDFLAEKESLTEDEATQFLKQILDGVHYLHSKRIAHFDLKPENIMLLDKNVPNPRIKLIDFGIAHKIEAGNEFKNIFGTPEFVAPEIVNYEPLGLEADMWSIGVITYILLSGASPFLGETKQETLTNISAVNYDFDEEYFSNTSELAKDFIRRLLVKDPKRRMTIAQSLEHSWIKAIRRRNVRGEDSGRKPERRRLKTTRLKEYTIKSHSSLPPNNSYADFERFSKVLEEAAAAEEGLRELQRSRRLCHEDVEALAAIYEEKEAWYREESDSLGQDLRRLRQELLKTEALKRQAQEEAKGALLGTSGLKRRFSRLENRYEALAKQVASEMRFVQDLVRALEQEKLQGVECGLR
For assay [9], the target named is AURKA (human) (UniProt O14965). As to conditions: compound 1.0 µM.
Assay [10] concerns RPS6KA1 KD1 KD2 (rat). The settings on record: compound 1.0 µM; accession and sequence are those of the human protein.
Assay [11] concerns the target NEK7 (human) (UniProt Q8TDX7). The settings on record: compound 1.0 µM.
Assay [12] has as its target MST1R (human) (UniProt Q04912). As to conditions: compound 1.0 µM.
Assay [13] relates to PRKACA (cow). As to conditions: compound 1.0 µM; accession and sequence are those of the human protein.
The target in assay [14] is STK17A (human) (UniProt Q9UEE5). As to conditions: compound 1.0 µM.
STK17A (human), sequence (Q9UEE5 whole entry, looked up): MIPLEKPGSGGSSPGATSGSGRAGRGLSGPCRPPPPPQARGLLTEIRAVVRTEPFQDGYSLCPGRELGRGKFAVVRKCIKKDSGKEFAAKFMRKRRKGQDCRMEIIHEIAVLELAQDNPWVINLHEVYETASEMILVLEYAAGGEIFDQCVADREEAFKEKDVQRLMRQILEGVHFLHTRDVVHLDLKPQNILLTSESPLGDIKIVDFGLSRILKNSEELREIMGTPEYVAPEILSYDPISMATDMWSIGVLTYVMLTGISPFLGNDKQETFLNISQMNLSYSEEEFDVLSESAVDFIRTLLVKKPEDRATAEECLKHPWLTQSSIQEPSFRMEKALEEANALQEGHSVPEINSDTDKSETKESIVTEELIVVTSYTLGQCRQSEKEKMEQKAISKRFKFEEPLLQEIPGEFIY
The target of assay [15] is ACVR1B (human) (UniProt P36896). As to conditions: compound 1.0 µM.
For assay [16], the target named is MAP2K1 (human) (UniProt Q02750). The settings on record: compound 1.0 µM.
Assay [17] deals with ROCK2 (rat). As to conditions: compound 1.0 µM; accession and sequence are those of the human protein.
The target in assay [18] is STK10 (human) (UniProt O94804). The settings on record: compound 1.0 µM.
STK10 (human), sequence (O94804 whole entry, looked up): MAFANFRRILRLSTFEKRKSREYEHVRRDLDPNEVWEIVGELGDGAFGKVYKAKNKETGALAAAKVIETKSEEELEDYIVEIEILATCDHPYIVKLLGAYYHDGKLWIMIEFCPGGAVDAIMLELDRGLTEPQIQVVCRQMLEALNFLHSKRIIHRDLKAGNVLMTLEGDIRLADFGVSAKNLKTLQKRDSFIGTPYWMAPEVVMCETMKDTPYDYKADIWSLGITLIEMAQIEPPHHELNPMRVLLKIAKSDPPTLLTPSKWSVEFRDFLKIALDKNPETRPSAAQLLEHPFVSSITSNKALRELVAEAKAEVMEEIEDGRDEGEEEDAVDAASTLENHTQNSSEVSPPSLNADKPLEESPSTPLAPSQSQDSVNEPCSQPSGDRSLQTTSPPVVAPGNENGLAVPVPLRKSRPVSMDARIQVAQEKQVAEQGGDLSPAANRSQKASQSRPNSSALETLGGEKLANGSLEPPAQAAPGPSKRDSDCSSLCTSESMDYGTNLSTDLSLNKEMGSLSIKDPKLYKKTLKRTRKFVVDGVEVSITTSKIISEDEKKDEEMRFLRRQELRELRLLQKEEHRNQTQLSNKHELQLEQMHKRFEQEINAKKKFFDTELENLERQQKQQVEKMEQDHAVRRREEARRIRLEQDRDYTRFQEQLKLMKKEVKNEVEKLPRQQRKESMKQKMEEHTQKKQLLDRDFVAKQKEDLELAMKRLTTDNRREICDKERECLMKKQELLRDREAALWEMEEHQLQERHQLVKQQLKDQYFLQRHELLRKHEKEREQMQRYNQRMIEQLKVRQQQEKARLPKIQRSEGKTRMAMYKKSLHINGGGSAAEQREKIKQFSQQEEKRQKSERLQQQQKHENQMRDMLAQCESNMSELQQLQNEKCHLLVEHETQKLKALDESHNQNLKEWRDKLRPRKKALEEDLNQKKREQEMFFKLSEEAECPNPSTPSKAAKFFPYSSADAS
In assay [19] the target is PRKCD (human) (UniProt Q05655). The settings on record: compound 1.0 µM.

MST1R (human), sequence (Q04912 whole entry, looked up): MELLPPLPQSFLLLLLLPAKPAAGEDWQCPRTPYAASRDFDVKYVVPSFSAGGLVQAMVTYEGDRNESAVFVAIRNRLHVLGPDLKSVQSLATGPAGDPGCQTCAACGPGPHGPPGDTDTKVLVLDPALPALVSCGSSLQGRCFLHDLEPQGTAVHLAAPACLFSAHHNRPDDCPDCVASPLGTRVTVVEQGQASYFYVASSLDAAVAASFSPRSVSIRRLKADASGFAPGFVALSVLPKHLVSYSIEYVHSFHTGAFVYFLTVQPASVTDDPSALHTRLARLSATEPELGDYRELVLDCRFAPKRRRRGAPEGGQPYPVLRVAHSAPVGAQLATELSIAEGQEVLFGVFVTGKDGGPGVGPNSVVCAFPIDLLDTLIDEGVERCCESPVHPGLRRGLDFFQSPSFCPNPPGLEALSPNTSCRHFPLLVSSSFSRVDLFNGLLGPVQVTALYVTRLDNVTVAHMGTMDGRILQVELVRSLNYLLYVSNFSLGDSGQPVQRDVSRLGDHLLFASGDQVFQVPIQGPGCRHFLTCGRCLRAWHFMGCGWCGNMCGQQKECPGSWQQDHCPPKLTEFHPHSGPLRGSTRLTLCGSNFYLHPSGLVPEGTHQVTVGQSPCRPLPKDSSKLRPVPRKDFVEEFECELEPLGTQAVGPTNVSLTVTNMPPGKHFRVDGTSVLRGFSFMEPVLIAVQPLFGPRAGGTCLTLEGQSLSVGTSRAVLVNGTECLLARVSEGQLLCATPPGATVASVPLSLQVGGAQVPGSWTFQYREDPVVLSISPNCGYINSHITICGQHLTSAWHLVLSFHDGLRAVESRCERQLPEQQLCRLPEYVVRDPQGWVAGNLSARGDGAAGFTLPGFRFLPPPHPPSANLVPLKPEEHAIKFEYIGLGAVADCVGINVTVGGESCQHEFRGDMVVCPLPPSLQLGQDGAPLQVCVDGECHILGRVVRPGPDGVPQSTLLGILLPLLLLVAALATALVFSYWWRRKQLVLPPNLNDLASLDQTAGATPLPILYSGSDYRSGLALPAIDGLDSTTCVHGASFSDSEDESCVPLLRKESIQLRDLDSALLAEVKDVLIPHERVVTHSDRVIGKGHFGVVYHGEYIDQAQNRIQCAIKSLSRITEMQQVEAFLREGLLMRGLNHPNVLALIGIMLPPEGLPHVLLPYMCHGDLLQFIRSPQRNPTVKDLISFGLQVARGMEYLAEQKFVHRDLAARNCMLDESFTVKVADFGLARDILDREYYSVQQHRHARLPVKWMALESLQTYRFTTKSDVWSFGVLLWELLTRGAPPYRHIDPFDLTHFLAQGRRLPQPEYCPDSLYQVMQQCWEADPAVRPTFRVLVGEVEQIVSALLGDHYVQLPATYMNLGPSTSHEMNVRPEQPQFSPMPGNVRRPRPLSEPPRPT
MINK1 (human), sequence (Q8N4C8 whole entry, looked up): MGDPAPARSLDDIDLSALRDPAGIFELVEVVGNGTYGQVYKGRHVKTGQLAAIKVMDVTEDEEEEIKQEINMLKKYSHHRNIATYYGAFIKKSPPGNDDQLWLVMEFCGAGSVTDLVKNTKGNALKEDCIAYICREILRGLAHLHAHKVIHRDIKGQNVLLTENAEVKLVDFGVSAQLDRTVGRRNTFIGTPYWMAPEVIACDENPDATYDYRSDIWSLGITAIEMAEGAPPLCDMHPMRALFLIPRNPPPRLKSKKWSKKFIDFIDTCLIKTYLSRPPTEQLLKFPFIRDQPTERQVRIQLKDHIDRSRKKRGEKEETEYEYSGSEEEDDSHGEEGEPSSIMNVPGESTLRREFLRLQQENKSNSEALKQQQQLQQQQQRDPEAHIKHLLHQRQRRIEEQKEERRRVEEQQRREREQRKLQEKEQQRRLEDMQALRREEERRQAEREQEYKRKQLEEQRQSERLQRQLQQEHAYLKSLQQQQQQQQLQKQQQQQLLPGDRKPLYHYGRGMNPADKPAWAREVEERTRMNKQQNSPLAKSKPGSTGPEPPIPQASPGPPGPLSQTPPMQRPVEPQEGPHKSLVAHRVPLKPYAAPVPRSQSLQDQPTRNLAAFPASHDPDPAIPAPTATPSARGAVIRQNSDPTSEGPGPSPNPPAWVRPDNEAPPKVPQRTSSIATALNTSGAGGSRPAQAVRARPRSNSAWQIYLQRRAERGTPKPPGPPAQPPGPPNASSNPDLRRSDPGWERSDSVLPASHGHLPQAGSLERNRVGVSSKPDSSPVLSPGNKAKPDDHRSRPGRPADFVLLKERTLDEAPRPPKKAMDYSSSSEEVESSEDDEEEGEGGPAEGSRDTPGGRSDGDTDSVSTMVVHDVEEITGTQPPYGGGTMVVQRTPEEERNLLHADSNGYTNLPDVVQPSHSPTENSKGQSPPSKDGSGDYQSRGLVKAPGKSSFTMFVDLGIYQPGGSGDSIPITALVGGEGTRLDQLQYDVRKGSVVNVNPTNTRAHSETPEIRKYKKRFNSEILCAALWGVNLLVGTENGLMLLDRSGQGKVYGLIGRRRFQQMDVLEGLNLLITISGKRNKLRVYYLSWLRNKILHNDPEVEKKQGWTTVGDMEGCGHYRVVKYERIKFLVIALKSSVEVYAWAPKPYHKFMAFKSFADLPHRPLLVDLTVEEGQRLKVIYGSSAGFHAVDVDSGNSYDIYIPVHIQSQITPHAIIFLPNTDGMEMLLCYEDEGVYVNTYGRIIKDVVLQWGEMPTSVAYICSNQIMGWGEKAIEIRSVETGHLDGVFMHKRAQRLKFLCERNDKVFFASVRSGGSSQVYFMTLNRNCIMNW

The term residual activity denotes the signal under treatment as a percentage of the control signal. As for `Cc1n[nH]c2c1c(=O)n(CCCN)c1ccc(Cl)cc21`, the residual activity in assay [1] was found to be 90%; in [2] it was 134%; in assay [3], 94%; in [4], 111%; in assay [5], 94%; in assay [6], 111%. The residual activity in assay [7] was 95%; in assay [8] it was 43%; in assay [9], 104%; in assay [10], 6%; in assay [11], 105%; in [12], 107%. For the same molecule, the residual activity in assay [13] turned out to be 81%; in assay [14] it was 23%; in assay [15], 138%; in assay [16], 97%; in [17], 88%; in [18] it was 81%. The residual activity in [19] turned out to be 78%.

For the origin of these results see the kinase profiling compilation of Christmann-Franck et al. (2016).
